From paper PMC6789111, “Crossing the blood-brain-barrier with nanoligand drug carriers self-assembled from a phage display peptide” (Nature Communications, 2019)
Where two headings read alike, the source gives them in different places. Peptide text beside a SMILES is read from it. * marks the point of attachment. 5FAM = O=C1OC2(c3ccc(O)cc3Oc3cc(O)ccc32)c2ccc(C(=O)*)cc21

Assays:
hCMEC/D3 cell monolayer = assay: Transwell in vitro BBB model; assay type: cell-based, human
Method: For the construction of the in vitro BBB model, hCMEC/D3 cells were seeded on rat tail collagen-coated polycarbonate membranes (Transwell, No. 3401 Costar; Corning, Wiesbaden, Germany; 0.4 μm pore size; 1.13 cm^2 growth area) with a density of 100,000 cells cm^−2. Every three days the cell medium was change. In general after 7 days growth, the cells reached confluence. The transendothelial electrical resistance (TEER) and cell layer capacitance (CCL), which reflects the membrane surface area of the hCMEC/D3 cell monolayer, were measured using CellZscope system (NanoAnalytics, Münster, Germany). Cells with CCL values in the range of 0.5–5.0 μF cm^−2 indicate cell confluence and validate TEER values were selected for the transfer experiments. NLCs at different concentrations were introduced in to the apical side of the BBB model. The TEER values were measured during the incubation. After 24 h of incubation, the media from basal and apical sides were sampled and analysed for fluorescent measurement. CD31 and paracellular adherens (β-catenin) junctions were assessed by immunofluorescence labeling directly on the cell monolayer attached to the transwell membrane. Briefly, cells were fixed by 4% v/v paraformaldehyde for 10 min, rinsed and then permeabilised with 0.5% (v/v) Triton X-100 for 10 min. After rinsing samples were blocked by 5% w/v BSA for 1 h, followed by incubation with primary antibodies (rabbit polyclonal to CD31, rabbit polyclonal to anti-β-catenin) in 1% w/v BSA overnight at 4 °C. […] After rinsing, the red fluorescence from tight junction proteins was observed by a Leica AF6000LX microscope equipped with a 63 × objective using ×1.6 magnifications. […]
formation of multiple cell-layers was sometime observed from day 7 onward. […] TEER values and its corresponding capacitance were recorded after the introduction of peptide for 24 h. (d) & (e) Staining and quantification of endothelial cells (CD31) and adheren β-catenin markers confirming the presence of a functional tight junction before and after NLC ( 5 µM) challenge. […]

[1] = Blood clearance after intravenous injection; assay type: in vivo, ICR mice; details: Cy5.5 peptide i.v., Ave
Method: (§1) The final concentration of the peptide conjugate was 10 µM and that of siRNA was 48 nM based on blood volume calculation equivalent to 6% of the body weight. At different time points blood samples were collected via retro-orbital blood collection. For whole animal imaging system mice were anaesthetised with isoflurane and in vivo fluorescence images were taken (IVIS 200 Spectrum, USA), at different time points. At 4 h post administration, mice were sacrificed, and the liver, lungs, kidneys, spleen, pancreas and brain were collected and stored in liquid nitrogen. The organs were homogenised (FastPrep-24™ 5G Instrument, MP Biomedicals, USA) and the levels of peptide and siRNA were measured in a fluorescence spectrometer (Fluotime 300, Picoquant, Berlin, Germany) using a standard curve.

[2] = Brain level after intravenous injection; assay type: in vivo, ICR mice; details: for Brain level (% of injected dose): Cy5.5 peptide i.v., Ave
Method: as §1, with “At 4 h post administration, mice were sacrificed, and the liver, lungs, kidneys, spleen, pancreas and brain were collected and stored in liquid nitrogen.” left out

hCMEC/D3 cells = assay: Uptake with internalisation inhibitors; details: 37 °C
Method: The medium was then removed and replaced with a fresh medium containing NLCs and the corresponding inhibitor. After 8 h of incubation at 37 °C, cells were washed three times with cell medium and analysed by FACS. Cell viability at the end of each experiment was >90% as determined by Trypan Blue exclusion test. The following inhibitors were used: 2-deoxy-D-glucose (1 mM)/sodium azide (1 mM) as energy-dependent inhibitors, worthmanin (10 μM) as macropinocytosis inhibitor, chloropromazine (30 μM) as clathrin-dependent endocytosis inhibitor, N-ethylmaleimide (5 μM) as caveolae-dependent endocytosis and transcytosis inhibitor and indomethacin (200 μM) as caveolae-dependent endocytosis inhibitor.

BACE1 = assay: In vivo BACE1 silencing, Western blot; parameters: species or system ICR mice; details: for BACE1 expression level: 72 nM siRNA
Method: For in vivo BACE1 silencing, 20 ICR mice were randomly divided into five groups (4 mice in each group) and administrated intravenously with either 72 nM siControl/FAM-CGY or BACE1 siRNA (final concentration, 72 nM) or 72 nM siControl/FAM-CGY scramble peptide1 or 48 nM BACE1 siRNA/FAM-CGY or 72 nM BACE1 siRNA/FAM-CGY, respectively. The final concentration of peptide was 10 μM. […] The frozen brain tissues (80–90 mg) were homogenized in RIPA lysis buffer (Beyotime, China) and centrifuged at 18,000 × g, 4 °C for 15 min. Protein concentration of the supernatant was determined using the BCA Protein Assay Kit. Equal amounts of protein from each sample were loaded on SDS-PAGE gels (4–15%) for the determination with level of the target protein determined by Western blotting using the anti-BACE1 antibody (1:1000 dilution) and detected with HRP-Goat-anti-rabbit) IgG (H + L) secondary antibody (1:3000).

[3] = Blood count after intravenous injection; assay type: in vivo, ICR mice; details: mouse, in vivo, iv
Text: Supplementary Table 2. Blood count following intravenous injection of FAM-CGY NLCs in free form and complexed with siRNA
Samples WBC RBC HGB HCT MCV MCH MCHC PLT
WBC: white blood cell; RBC: red blood cell count; HGB: haemoglobin; HCT: haematocrit; MCV: mean corpuscular volume; MCH: mean corpuscular haemoglobin; MCHC: mean corpuscular
significance (*p < 0.05). The results are mean ± s.d. (n = 3 animals per group). The experiment was repeated twice with identical results. The siRNA represent BACE-1-specific siRNA. The
final concentration of the peptide conjugate was 10 µM and that of siRNA was 48 nM, based on blood volume calculation equivalent to 6% of the body weight. LPS = lipopolysaccharide.

Row | Compound | Blood level (% of injected dose) ([1]; 0.25 h) | Blood level (% of injected dose) ([1]; 0.50 h) | Blood level (% of injected dose) ([1]; 1.00 h) | Blood level (% of injected dose) ([1]; 4.00 h) | Blood level (% of injected dose) ([1]; 12.00 h) | Blood level (% of injected dose) ([1]; 24.00 h) | Brain level (% of injected dose) ([2]; 0.25 h) | Brain level (% of injected dose) ([2]; 0.50 h) | Brain level (% of injected dose) ([2]; 1.00 h) | Brain level (% of injected dose) ([2]; 4.00 h) | Brain level (% of injected dose) ([2]; 12.00 h) | Brain level (% of injected dose) ([2]; 24.00 h) | also measured
1 | O=C(O)c1ccc2c(c1)C(=O)OC21c2ccc(O)cc2Oc2cc(O)ccc21 [5-FAM, 5-carboxy-fluorescein, reference compound] |  |  |  |  |  |  |  |  |  |  |  |  | transport across the hCMEC/D3 monolayer (hCMEC/D3 cell monolayer): neither the fluorophor 5-FAM nor the scrambled peptide showed notable transport
2 | CC[C@H](C)[C@H](NC(=O)[C@H](CC(N)=O)NC(=O)[C@H](Cc1c[nH]cn1)NC(=O)[C@@H](NC(=O)[C@@H]1CCCN1C(=O)[C@H](CCCNC(=N)N)NC(=O)[C@H](Cc1ccc(O)cc1)NC(=O)CNC(=O)[C@H](CS)NC(=O)c1ccc2c(c1)C(=O)OC21c2ccc(O)cc2Oc2cc(O)ccc21)C(C)C)C(=O)NCC(=O)N[C@@H](Cc1c[nH]cn1)C(=O)N[C@@H](Cc1c[nH]c2ccccc12)C(=O)N[C@@H](CCCNC(=N)N)C(=O)N[C@@H](C)C(=O)N1CCC[C@H]1C(=O)NCC(=O)O [FAM-CGY scrambled 1] (5FAM-CGYRPVHNIGHWRAPG-OH) |  |  |  |  |  |  |  |  |  |  |  |  | transport across the hCMEC/D3 monolayer (hCMEC/D3 cell monolayer; apical to basal, 24 h, fluorescence): neither the fluorophor 5-FAM nor the scrambled peptide showed notable transport
3 | Cy5.5- CGYRPVHNIGHWRAPG [Cy5.5-CGY scrambled 1] | 65.67 % of injected dose | 27.80 % of injected dose | 11.82 % of injected dose | 6.91 % of injected dose | 3.51 % of injected dose | 1.61 % of injected dose | 0.74 % of injected dose | 1.20 % of injected dose | 1.71 % of injected dose | 1.92 % of injected dose | 1.01 % of injected dose | 0.39 % of injected dose | brain accumulation ([2]; i.v., mice): poorly accumulates in the brain
4 | Cy5.5-CGYRPVHNIRGHWAPG | 77.38 % of injected dose | 31.74 % of injected dose | 14.16 % of injected dose | 12.22 % of injected dose | 6.13 % of injected dose | 1.31 % of injected dose | 2.16 % of injected dose | 3.71 % of injected dose | 5.40 % of injected dose | 5.73 % of injected dose | 3.72 % of injected dose | 1.71 % of injected dose | peak brain level ([2]; 4 h after i.v., corrected for the blood content): 5.7 % of the injected dose
5 | Transferrin: Texas Red-labelled transferrin, TfR substrate, positive control [reference compound] |  |  |  |  |  |  |  |  |  |  |  |  | Mean flouresence (%), uptake vs Control (no inhibitor) (hCMEC/D3 cells; CPZ (chloropromazine 30 μM), 8 h, replicate 1): 55.06%; Mean flouresence (%), uptake vs Control (no inhibitor) (hCMEC/D3 cells; CPZ (chloropromazine 30 μM), 8 h, replicate 2): 58.26%; Mean flouresence (%), uptake vs Control (no inhibitor) (hCMEC/D3 cells; CPZ (chloropromazine 30 μM), 8 h, replicate 3): 48.74%; Mean flouresence (%), uptake vs Control (no inhibitor) (hCMEC/D3 cells; DOG+NaN3 (1 mM/1 mM), 8 h, replicate 2): 38.57%; Mean flouresence (%), uptake vs Control (no inhibitor) (hCMEC/D3 cells; DOG+NaN3 (1 mM/1 mM), 8 h, replicate 3): 34.62%; Mean flouresence (%), uptake vs Control (no inhibitor) (hCMEC/D3 cells; DOG+NaN3 (2-deoxy-D-glucose 1 mM/sodium azide 1 mM), 8 h, replicate 1): 42.26%; Mean flouresence (%), uptake vs Control (no inhibitor) (hCMEC/D3 cells; IMC (indomethacin 200 μM), 1 h pre-treatment + 8 h, FACS, FAM-CGY NLC 5 µM or Texas Red-transferrin 5 µg per well, replicate 1): 102.05%; Mean flouresence (%), uptake vs Control (no inhibitor) (hCMEC/D3 cells; IMC (indomethacin 200 μM), 8 h, replicate 2): 90.27%; Mean flouresence (%), uptake vs Control (no inhibitor) (hCMEC/D3 cells; NEM (N-ethylmaleimide 5 μM), 8 h, replicate 1): 86.23%; Mean flouresence (%), uptake vs Control (no inhibitor) (hCMEC/D3 cells; NEM (N-ethylmaleimide 5 μM), 8 h, replicate 2): 95.58%; Mean flouresence (%), uptake vs Control (no inhibitor) (hCMEC/D3 cells; NEM (N-ethylmaleimide 5 μM), 8 h, replicate 3): 86.57%; Mean flouresence (%), uptake vs Control (no inhibitor) (hCMEC/D3 cells; WOR (worthmanin 10 μM), 8 h, replicate 1): 112.26%; Mean flouresence (%), uptake vs Control (no inhibitor) (hCMEC/D3 cells; WOR (worthmanin 10 μM), 8 h, replicate 2): 98.26%; Mean flouresence (%), uptake vs Control (no inhibitor) (hCMEC/D3 cells; WOR (worthmanin 10 μM), 8 h, replicate 3): 108.61%
6 | siBACE1: sense 5′-GCUUUGUGGAGAUGGUGGATT-3′, antisense 5′-UCCACCAUCUCCACAAAGCTT-3′; siRNA of Supplementary Table 2 (chemistry not given here) |  |  |  |  |  |  |  |  |  |  |  |  | BACE1 expression level (BACE1; 48 h after i.v., siControl = 100.00, Ave.): 101.87; BACE1 expression level (BACE1; 48 h after i.v., siControl = 100.00, experiment 2): 94.53; BACE1 expression level (BACE1; 48 h after i.v., siControl = 100.00, experiment 3): 102.52; BACE1 expression level (BACE1; peptide 10 μM where present, single i.v., 48 h, FAM-CGY+72 nM siControl = 100.00, experiment 1): 108.56; pharmacological activity in hippocampus (BACE1; i.v. BACE1 siRNA in free form or with FAM-SP1): no pharmacological activity; WBC [3]: 4.54±0.30 (×109)L-1
